Test results published in patent publication US9522198B2, “Methods and compositions related to targeting tumors and wounds” (Sanford-Burnham Medical Research Institute, priority 2006, dated 2016).
“Also recorded” adds a separate entry of the source. Where two headings read alike, the source gives them in different places. Ends that are not written are not given here.

Legend:
fibrin(ogen) = test: Co-localization of injected peptide with fibrin staining in tumor sections; assay type: in vivo, mouse; settings: MDA-MB-435 xenograft sections, i.v. injected peptide
Method: (§1) The mice were perfused through the heart 3 hours after the peptide injection and tissues removed for examination. For fibrin and fibronectin immunostaining, tissues were fixed with 4% paraformaldehyde and stained with biotinylated mouse fibrin(ogen) antiserum (Nordic Immunological Laboratories) or a polyclonal anti-mouse fibronectin (Chemicon), followed by streptavidin Alexa 594 or anti-rabbit Alexa 594 (Molecular Probes), respectively. For peptide overlay, sections of frozen OCT embedded tissue were incubated with 10 μg/ml fluorescein-conjugated peptide for 30 min at room temperature. Tissue fluorescence was quantified using Image-Pro Plus software. At least two images from representative microscopic fields were analyzed from each tissue sample and data from individual mice that received the same treatment (n=2-8) were pooled.

fibrinogen = target: T1, fibrinogen (Homo sapiens, UniProt P02671+P02675+P02679); test: Aggregate formation with plasma proteins, light scattering at 600 nm (turbidity); assay type: biochemical
T1 sequence (P02671 20-629 limits assumed): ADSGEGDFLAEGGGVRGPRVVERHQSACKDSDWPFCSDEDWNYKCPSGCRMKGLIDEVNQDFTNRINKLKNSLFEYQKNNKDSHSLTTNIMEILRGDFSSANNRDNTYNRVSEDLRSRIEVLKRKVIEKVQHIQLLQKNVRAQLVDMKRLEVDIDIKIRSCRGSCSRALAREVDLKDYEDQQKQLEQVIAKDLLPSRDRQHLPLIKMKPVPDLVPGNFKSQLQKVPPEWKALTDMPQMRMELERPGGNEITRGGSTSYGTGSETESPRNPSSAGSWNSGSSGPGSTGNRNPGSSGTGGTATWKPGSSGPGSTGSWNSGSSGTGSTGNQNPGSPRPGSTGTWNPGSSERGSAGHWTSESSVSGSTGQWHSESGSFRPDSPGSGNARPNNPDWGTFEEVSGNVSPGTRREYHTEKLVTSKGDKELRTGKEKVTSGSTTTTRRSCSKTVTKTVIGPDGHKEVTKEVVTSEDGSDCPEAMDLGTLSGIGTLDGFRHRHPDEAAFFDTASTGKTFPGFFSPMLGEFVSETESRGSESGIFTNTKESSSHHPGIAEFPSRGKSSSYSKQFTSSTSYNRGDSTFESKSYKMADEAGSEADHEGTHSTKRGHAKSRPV
T1 sequence (P02675 31-491): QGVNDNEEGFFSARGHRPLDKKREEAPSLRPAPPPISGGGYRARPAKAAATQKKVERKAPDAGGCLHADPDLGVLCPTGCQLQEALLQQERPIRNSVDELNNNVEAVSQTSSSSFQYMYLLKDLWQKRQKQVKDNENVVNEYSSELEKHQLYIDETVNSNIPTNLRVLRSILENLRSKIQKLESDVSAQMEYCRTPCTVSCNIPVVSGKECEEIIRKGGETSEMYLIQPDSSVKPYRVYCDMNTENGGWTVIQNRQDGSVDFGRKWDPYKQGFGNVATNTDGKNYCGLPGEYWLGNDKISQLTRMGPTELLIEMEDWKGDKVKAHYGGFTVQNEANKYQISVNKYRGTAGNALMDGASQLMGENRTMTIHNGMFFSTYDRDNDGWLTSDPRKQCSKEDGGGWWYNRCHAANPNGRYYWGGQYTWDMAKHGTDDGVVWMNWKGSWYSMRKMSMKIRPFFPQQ
T1 sequence (P02679 27-453): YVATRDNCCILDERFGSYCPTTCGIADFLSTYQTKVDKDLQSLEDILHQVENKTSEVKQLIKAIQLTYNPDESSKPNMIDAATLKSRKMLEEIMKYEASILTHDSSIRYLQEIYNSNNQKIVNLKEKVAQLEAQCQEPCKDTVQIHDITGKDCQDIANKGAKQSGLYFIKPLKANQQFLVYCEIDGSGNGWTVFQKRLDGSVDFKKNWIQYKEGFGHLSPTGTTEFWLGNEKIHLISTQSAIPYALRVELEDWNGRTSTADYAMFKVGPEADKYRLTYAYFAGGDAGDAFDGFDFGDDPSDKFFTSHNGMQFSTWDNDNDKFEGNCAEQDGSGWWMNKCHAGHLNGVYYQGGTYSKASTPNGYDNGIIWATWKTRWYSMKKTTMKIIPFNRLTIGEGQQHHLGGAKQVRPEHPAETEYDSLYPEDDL
Text: (§2) CLT1 contains a sequence of three consecutive hydrophobic residues, LII (leucine-isoleucine-isoleucine). This motif is very similar to the VII sequence (V, valine) which causes proteins to form large insoluble aggregates (Esteras-Chopo et al. 2005). […] The ability of CLT1 to aggregate proteins correlates with its cytotoxicity for human umbilical venous endothelial cells (HUVECs).

fibronectin = test: as above; assay type: biochemical
Text: as §2

[1] = tested on: human umbilical venous endothelial cells (HUVECs); assay type: cell-based
Text: as §2

PPC1 xenograft tumor = test: Peptide overlay assay on frozen tumor sections; assay type: binding; settings: PPC1 xenografts
Method: as §1

[2] = tested on: mouse Lewis lung carcinoma; test: Peptide overlay assay on frozen tumor sections; assay type: binding
Method: as §1

CGLIIQKNEC (also: cyclic, ring type not given here, fluorescein conjugate, site not given here) [CLT1, cyclic decapeptide from phage library screened on plasma clots; tested as fluorescein conjugate]
co-localization of peptide fluorescence with fibrin staining (fibrin(ogen)): co-localized; also recorded: overlapping distribution | aggregate formation with fibrinogen (fibrinogen): form aggregates | aggregate formation with fibronectin (fibronectin): form aggregates | cytotoxicity for endothelial cells ([1]; HUVECs): cytotoxic for endothelial cells | cell death ([1]; confluent HUVECs, 150 μg/ml): not in confluent HUVECs | cell death ([1]; proliferating HUVECs, 150 μg/ml in culture media, within 24 h): induced cell death | overlay binding (PPC1 xenograft tumor): positive | overlay binding in presence of control peptide ([2]; co-incubation with control peptide): not by a control peptide | overlay binding in presence of unlabeled CLT peptide ([2]; co-incubation with unlabeled CLT1): inhibited; also recorded: eliminated | binding pattern in peptide overlay ([2]; fluorescein-conjugated peptide 10 μg/ml, 30 min): produced a fibrillar network
